Results from paper PMC7248194, “Cell-Based Radiotracer Binding and Uptake Inhibition Assays: A Comparison of In Vitro Methods to Assess the Potency of Drugs That Target Monoamine Transporters” (Frontiers in Pharmacology, 2020).

Columns and labels:
rSERT [1] = molecular target: T1, rSERT (Rattus norvegicus, UniProt P31652); assay: saturation uptake, adherent HEK […] cells; format: cell-based; conditions: cell line 3; labelled compound, 200 nM [3H]-5-HT diluted with unlabelled; KHB pH 7.3, room temperature, 1 min; read-out: Km ± SD
T1 construct: gene Slc6a4; full-length, stably expressed in HEK 293 cells (Vienna, 'cell line 3')

NCCc1c[nH]c2ccc(O)cc12 = test system: T2, NCCc1c[nH]c2ccc(O)cc12; assay: cells, lysate or membranes; format: cell-based, Homo sapiens; conditions: cell line 2, labelled compound, 200 nM [3H]-5-HT diluted with unlabelled, KHB pH 7.3, room temperature, 1 min
T2 construct: full-length, stably expressed in HEK 293 cells (Basel, 'cell line 2')

rSERT [2] = molecular target: T1, rSERT; assay: [3H]-CFT saturation binding, adherent HEK […] cells; format: cell-based; conditions: read-out: Kd ± SD
hSERT = molecular target: T3, hSERT (Homo sapiens, UniProt P31645); assay: [3H]-CFT saturation binding, adherent HEK […] cells; format: cell-based; conditions: read-out: Kd ± SD
T3 construct: gene SLC6A4; full-length, stably expressed in HEK 293 cells (Basel, 'cell line 2')

hNET = molecular target: T4, hNET (Homo sapiens, UniProt P23975); assay: [3H]-CFT saturation binding, adherent HEK […] cells; format: cell-based; conditions: read-out: Kd ± SD
T4 construct: gene SLC6A2; full-length, stably expressed in HEK 293 cells (Basel, 'cell line 2')

rNET = molecular target: T5, rNET (Rattus norvegicus, UniProt Q63380); assay: [3H]-CFT saturation binding, adherent HEK […] cells; format: cell-based; conditions: read-out: Kd ± SD
T5 construct: gene Slc6a2; full-length, stably expressed in HEK 293 cells (Vienna, 'cell line 3')

[3] = substrate: NCCc1ccc(O)c(O)c1; assay: cells, lysate or membranes; format: cell-based, Rattus norvegicus; conditions: cell line 3, labelled compound, 200 nM [3H]-dopamine diluted with unlabelled, KHB pH 7.3, room temperature, 1 min
[4] = substrate: NCCc1ccc(O)c(O)c1; assay: cells, lysate or membranes; conditions: cell line 2, labelled compound, 200 nM [3H]-dopamine diluted with unlabelled, KHB pH 7.3, room temperature, 1 min

T1 sequence (P31652 whole entry): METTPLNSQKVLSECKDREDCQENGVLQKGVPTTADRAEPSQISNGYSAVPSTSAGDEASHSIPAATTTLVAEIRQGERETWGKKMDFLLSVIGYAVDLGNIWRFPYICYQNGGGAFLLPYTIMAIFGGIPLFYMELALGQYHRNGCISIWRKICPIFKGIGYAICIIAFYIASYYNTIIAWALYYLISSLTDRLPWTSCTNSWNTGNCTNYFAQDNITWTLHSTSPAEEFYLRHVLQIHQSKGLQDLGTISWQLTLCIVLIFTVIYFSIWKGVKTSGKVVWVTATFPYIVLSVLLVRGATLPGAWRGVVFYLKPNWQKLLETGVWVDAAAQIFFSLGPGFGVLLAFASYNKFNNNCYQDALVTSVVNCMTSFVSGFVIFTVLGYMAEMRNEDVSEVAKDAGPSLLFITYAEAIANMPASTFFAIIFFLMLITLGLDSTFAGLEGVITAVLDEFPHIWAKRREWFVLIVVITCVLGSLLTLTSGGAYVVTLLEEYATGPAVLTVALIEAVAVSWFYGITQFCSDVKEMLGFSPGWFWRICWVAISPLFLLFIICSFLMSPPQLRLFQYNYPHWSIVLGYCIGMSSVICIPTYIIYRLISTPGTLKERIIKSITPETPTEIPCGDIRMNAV
T5 sequence (Q63380 1-617): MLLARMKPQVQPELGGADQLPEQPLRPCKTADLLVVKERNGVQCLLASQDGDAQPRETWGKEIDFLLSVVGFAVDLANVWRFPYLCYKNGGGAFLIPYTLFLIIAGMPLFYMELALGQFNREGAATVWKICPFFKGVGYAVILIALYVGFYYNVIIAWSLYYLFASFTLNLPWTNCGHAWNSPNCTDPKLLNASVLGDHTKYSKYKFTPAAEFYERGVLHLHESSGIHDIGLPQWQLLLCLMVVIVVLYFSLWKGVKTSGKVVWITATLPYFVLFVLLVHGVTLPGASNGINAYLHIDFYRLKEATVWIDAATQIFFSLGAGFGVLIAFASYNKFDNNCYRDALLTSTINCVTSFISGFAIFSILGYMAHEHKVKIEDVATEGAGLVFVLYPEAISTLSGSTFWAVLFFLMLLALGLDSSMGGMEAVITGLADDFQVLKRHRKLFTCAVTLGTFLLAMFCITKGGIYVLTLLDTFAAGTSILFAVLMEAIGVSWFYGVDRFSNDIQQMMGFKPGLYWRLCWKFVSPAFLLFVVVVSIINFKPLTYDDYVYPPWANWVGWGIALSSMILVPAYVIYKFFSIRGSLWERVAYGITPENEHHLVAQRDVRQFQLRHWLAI
T4 sequence (P23975 whole entry): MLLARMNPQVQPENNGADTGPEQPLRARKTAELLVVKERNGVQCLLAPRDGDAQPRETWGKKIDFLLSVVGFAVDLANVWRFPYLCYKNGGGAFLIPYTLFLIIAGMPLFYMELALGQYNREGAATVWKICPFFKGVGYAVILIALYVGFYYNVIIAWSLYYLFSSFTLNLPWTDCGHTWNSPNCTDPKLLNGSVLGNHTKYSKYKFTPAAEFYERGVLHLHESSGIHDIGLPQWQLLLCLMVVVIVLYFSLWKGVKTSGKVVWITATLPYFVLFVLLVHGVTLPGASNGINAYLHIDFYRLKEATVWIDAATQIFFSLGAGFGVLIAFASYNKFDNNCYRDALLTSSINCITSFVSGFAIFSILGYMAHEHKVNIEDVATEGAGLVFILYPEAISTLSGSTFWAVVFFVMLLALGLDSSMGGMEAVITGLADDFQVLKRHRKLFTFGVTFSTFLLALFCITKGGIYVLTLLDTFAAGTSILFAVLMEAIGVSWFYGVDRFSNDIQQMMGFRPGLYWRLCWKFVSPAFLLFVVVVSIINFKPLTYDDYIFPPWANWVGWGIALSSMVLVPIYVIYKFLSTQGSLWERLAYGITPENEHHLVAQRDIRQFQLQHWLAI
T3 sequence (P31645 whole entry): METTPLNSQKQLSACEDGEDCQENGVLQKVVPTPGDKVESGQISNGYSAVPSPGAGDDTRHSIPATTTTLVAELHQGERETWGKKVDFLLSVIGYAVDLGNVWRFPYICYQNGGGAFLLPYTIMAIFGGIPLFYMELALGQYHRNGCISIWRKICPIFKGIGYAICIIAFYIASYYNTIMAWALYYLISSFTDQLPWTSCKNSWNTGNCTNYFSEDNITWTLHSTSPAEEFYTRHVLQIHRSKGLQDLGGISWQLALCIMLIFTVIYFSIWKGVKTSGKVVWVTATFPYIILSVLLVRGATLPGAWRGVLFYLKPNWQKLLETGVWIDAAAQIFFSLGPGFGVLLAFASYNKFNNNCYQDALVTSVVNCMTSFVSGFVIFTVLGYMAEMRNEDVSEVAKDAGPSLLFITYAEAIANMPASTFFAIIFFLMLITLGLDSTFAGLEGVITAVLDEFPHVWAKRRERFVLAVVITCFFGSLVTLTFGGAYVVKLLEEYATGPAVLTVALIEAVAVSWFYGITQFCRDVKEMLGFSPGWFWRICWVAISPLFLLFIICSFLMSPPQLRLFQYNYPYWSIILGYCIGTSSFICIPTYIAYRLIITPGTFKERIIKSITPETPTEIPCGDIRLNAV

## NCCc1c[nH]c2ccc(O)cc12 [5-HT]
rSERT [1]
  Km: 3.4 ± 1.5 µM

## hSERT (Homo sapiens)
NCCc1c[nH]c2ccc(O)cc12
  Km: 4.1 ± 1.0 µM

## COC(=O)[C@H]1[C@@H](c2ccc(F)cc2)C[C@@H]2CC[C@H]1N2C [CFT, 2-β-carbomethoxy-3-β-(4-fluorophenyl)tropane]
rSERT [2]
  Kd: 1130 ± 70 nM
hSERT
  Kd: 1200 ± 400 nM
hNET
  Kd: 70 ± 20 nM
rNET
  Kd: 130 ± 70 nM

B1: rDAT (Rattus norvegicus) (protein)
chain: MSKSKCSVGPMSSVVAPAKESNAVGPREVELILVKEQNGVQLTNSTLINPPQTPVEAQERETWSKKIDFLLSVIGFAVDLANVWRFPYLCYKNGGGAFLVPYLLFMVIAGMPLFYMELALGQFNREGAAGVWKICPVLKGVGFTVILISFYVGFFYNVIIAWALHYFFSSFTMDLPWIHCNNTWNSPNCSDAHASNSSDGLGLNDTFGTTPAAEYFERGVLHLHQSRGIDDLGPPRWQLTACLVLVIVLLYFSLWKGVKTSGKVVWITATMPYVVLTALLLRGVTLPGAMDGIRAYLSVDFYRLCEASVWIDAATQVCFSLGVGFGVLIAFSSYNKFTNNCYRDAIITTSINSLTSFSSGFVVFSFLGYMAQKHNVPIRDVATDGPGLIFIIYPEAIATLPLSSAWAAVFFLMLLTLGIDSAMGGMESVITGLVDEFQLLHRHRELFTLGIVLATFLLSLFCVTNGGIYVFTLLDHFAAGTSILFGVLIEAIGVAWFYGVQQFSDDIKQMTGQRPNLYWRLCWKLVSPCFLLYVVVVSIVTFRPPHYGAYIFPDWANALGWIIATSSMAMVPIYATYKFCSLPGSFREKLAYAITPEKDHQLVDRGEVRQFTLRHWLLL
notes: full-length, stably expressed in HEK 293 cells (Vienna, 'cell line 3')
[3]
  Km: 8.8 ± 3.9 µM

B2: hDAT (Homo sapiens) (protein)
chain: MSKSKCSVGLMSSVVAPAKEPNAVGPKEVELILVKEQNGVQLTSSTLTNPRQSPVEAQDRETWGKKIDFLLSVIGFAVDLANVWRFPYLCYKNGGGAFLVPYLLFMVIAGMPLFYMELALGQFNREGAAGVWKICPILKGVGFTVILISLYVGFFYNVIIAWALHYLFSSFTTELPWIHCNNSWNSPNCSDAHPGDSSGDSSGLNDTFGTTPAAEYFERGVLHLHQSHGIDDLGPPRWQLTACLVLVIVLLYFSLWKGVKTSGKVVWITATMPYVVLTALLLRGVTLPGAIDGIRAYLSVDFYRLCEASVWIDAATQVCFSLGVGFGVLIAFSSYNKFTNNCYRDAIVTTSINSLTSFSSGFVVFSFLGYMAQKHSVPIGDVAKDGPGLIFIIYPEAIATLPLSSAWAVVFFIMLLTLGIDSAMGGMESVITGLIDEFQLLHRHRELFTLFIVLATFLLSLFCVTNGGIYVFTLLDHFAAGTSILFGVLIEAIGVAWFYGVGQFSDDIQQMTGQRPSLYWRLCWKLVSPCFLLFVVVVSIVTFRPPHYGAYIFPDWANALGWVIATSSMAMVPIYAAYKFCSLPGSFREKLAYAIAPEKDRELVDRGEVRQFTLRHWLKV
[4]
  Km: 5.5 ± 0.8 µM
